ChEMBL document CHEMBL1201862, “PubChem BioAssay data set” (2004)
The source made the active and inactive calls.

Legend:
[1] = target: Eukaryotic translation initiation factor 4E (Mus musculus, UniProt P63073); test: blockers of eIF4G binding by eIF4E – biochemical, TR-FRET, dose response (AID 855); format: functional;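 also: potency for disrupting eIF4E binding to eIF4GI seen as loss of FRET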
[2] = target: Troponin, cardiac muscle (Homo sapiens, UniProt P19429+P45379+P63316); test: Fluorescence-based biochemical high throughput dose response assay for activators of the calcium sensitivity of cardiac Regulated Thin Filaments (RTF). [Related pubchem assays (depositor defined):AID493008, AID493018, AID504382, AID504383]; format: protein-complex assay
[3] = test system: HEK293; test: cells; format: functional, cell-based; conditions: Homo sapiens
[4] = target: Nucleotide-binding oligomerization domain-containing protein 2 (Homo sapiens, UniProt Q9HC29); test: inhibition of NOD2-driven NF-kB reporter – cell-based, luminescence, uHTS, HEK293 (AID 1566); format: functional
[5] = test system: HEK293; test: inhibition of NOD1-driven NF-kB reporter – cell-based, luminescence, uHTS, primary screen (AID 1578); format: functional; conditions: Homo sapiens
[6] = test system: HEK293; test: cells; format: functional, cell-based; conditions: Homo sapiens; remark: listed apart in the source
[7] = test system: HEK293; test: cells; format: functional, cell-based; conditions: Homo sapiens; remark: listed apart in the source
[8] = test system: HEK293; test: NOD2 signaling inhibitors in MDP-stimulated cells, cell-based, uHTS, luminescence (AID 2001); format: functional; conditions: Homo sapiens
[9] = target: T1, Coagulation factor XII (Homo sapiens, UniProt P00748); format: functional;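 also: activated factor XIIa alpha cleaving a fluorogenic AMC peptide substrate; inhibitor potency from loss of enzyme activity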
T1 sequence (P00748 whole entry): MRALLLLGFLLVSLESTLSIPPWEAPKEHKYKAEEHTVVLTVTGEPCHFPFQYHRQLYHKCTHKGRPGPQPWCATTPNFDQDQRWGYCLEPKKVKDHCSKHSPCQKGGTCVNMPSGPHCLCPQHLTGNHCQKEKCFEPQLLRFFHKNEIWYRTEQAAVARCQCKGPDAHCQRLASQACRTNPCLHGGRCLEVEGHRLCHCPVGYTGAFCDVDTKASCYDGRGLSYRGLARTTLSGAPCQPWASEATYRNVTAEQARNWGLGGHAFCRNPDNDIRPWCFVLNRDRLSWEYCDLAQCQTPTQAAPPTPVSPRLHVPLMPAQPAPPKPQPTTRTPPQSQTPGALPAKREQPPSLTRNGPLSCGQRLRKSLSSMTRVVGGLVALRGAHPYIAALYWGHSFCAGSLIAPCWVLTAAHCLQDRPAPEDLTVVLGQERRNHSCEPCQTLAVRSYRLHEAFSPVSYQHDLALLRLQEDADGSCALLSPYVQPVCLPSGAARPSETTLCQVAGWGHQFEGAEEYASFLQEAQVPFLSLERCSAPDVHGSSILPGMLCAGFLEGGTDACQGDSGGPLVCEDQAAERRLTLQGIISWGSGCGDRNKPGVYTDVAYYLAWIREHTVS

[10] = M. tuberculosis H37Rv growth inhibitors, H37Rv strain (AID 1626); format: functional
[11] = cells; format: functional
[12] = blockade of melanocortin 4 receptor signaling – cell-based, plate reader, cherry pick, counter-screen for LGR2 antagonist project, dose response (AID 743444); format: functional;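 also: transfected HEK 293 cells stimulated with alpha-MSH peptide; potency of inhibitors of the alpha-MSH evoked signal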
[13] = A cytotoxicity screen of small molecule inhibitors of the PhoP region in Salmonella typhi identified in the primary screen. [Related pubchem assays: 1850, 1864, 1985 ]; format: functional
[14] = blockers of bursicon-stimulated LGR2 cAMP reporter – cell-based, HEK293, CRE-luciferase reporter, cherry pick, set 2, dose response (AID 743343); format: functional;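 also: transfected cells were stimulated with diluted bursicon conditioned medium after compound addition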
[15] = target: T2, Replicative DNA helicase DnaB (Mycobacterium tuberculosis, UniProt P9WMR3); test: DnaB intein splicing inhibitors, dose response, biochemical, cell-free fluorescence (AID 449749); format: functional
T2 sequence (P9WMR3 whole entry): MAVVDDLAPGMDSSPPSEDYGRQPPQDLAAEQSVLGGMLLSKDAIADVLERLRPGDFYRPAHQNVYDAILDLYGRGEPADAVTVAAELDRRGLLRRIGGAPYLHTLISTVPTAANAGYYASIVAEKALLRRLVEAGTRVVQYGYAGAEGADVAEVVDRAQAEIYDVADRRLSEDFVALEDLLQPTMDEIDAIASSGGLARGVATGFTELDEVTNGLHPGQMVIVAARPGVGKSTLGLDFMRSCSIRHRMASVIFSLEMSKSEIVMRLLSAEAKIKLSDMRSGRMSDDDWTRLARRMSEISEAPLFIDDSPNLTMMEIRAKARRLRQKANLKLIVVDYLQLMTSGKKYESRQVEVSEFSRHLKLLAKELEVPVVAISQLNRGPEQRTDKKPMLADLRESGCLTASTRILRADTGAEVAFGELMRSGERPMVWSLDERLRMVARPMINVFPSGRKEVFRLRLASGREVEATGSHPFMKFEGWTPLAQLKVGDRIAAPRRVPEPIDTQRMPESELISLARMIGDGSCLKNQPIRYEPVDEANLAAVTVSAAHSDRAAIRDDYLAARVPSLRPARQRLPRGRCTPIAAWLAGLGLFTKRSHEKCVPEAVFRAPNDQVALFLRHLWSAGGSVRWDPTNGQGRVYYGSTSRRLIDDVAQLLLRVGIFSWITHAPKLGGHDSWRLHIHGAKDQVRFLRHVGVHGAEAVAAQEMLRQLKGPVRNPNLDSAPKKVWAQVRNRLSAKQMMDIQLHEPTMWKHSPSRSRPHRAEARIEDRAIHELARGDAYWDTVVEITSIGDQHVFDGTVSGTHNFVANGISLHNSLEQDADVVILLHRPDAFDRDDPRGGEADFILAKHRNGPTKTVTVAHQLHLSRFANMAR

[16] = target: T3, Protein RecA (Mycobacterium tuberculosis, UniProt P9WHJ3); test: Fluorescence Cell-Free Homogeneous Dose Retest to Identify Inhibitors of RecA-Intein Splicing Activity. [Related pubchem assays (depositor defined):AID2097, AID2223, AID489010, AID492950]; format: functional
T3 sequence (P9WHJ3 whole entry): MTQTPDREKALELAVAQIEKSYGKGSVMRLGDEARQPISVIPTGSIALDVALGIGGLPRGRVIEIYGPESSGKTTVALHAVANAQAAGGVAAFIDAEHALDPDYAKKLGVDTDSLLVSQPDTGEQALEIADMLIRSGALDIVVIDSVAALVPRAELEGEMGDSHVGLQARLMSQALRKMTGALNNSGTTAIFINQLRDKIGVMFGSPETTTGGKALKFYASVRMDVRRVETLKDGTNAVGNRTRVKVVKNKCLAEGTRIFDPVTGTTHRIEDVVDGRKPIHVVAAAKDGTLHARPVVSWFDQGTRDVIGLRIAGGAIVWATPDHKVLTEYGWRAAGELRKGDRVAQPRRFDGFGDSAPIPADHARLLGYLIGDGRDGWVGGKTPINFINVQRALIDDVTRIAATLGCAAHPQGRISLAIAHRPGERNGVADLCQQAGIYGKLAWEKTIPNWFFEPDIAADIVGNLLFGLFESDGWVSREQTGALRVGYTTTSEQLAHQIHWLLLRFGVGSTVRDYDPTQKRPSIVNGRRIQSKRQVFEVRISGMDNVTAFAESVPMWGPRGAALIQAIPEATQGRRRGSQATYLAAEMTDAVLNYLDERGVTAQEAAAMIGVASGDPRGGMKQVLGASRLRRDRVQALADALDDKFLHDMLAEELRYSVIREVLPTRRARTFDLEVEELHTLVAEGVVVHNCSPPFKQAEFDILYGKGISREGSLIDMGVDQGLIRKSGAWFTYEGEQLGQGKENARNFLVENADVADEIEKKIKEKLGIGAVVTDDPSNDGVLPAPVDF

## O=C1c2ccccc2C(O)N1Cc1ccccc1Cl (stereo not given)
[1]
  IC50: > 64 µM (inactive)

## CC(C)CNC(=S)NC(=O)c1ccccc1Cl
[2]
  EC50: > 71.4 µM (inactive)

## CCCCn1c(SCC(=O)N2CCN(c3ccccc3)CC2)nc2ccsc2c1=O
[3]
  IC50: > 20 µM (inactive)
[4]
  EC50: 4.06 µM (active)
[5]
  EC50: 9.68 µM (active)
[6]
  IC50: 11.5 µM (active)
[7]
  IC50: > 20 µM (inactive)
[8]
  IC50: 8.34 µM (active)

## CN1CCN(C2=CC(=O)OC23CCCCC3)CC1
[1]
  IC50: > 64 µM (inactive)

## N#Cc1c2n(c3c(=O)n(Cc4ccccc4)cnc13)CCCC2
[9]
  IC50: > 50 µM (inactive)

## O=C(COc1ccc2ccccc2c1)Nc1nccs1
[10]
  IC50: > 100 µM (active)
[11]
  IC50: 22.3 µM (active)
[12]
  AC50: 18 µM (active)
[13]
  EC50: > 50 µM (active)
[14]
  AC50: 7.4 µM (active)

## COC(=O)c1ccc(S(=O)(=O)N2CCC(O)CC2)n1C
[2]
  EC50: > 71.4 µM (inactive)

## O=C(Nc1cccnc1)c1c(O)c2c(n(Cc3ccccc3)c1=O)CCCC2
[1]
  IC50: > 64 µM (inactive)

## O=C(c1[nH]ncc1-c1ccc(Cl)cc1)C1CO1 (stereo not given)
[15]
  AC50: 31.7 µM (active)
[4]
  EC50: > 20 µM (inactive)
[16]
  EC50: 20.9 µM (active)

## O=C(c1n[nH]cc1-c1ccc(Cl)cc1)C1CO1 (stereo not given)
[3]
  IC50: > 20 µM (inactive)
[5]
  EC50: 19.3 µM (active)
[6]
  IC50: 4.08 µM (active)
[7]
  IC50: > 20 µM (inactive)
[8]
  IC50: 5.72 µM (inactive)
